Experimental data taken from patent publication US20100204286A1, “METHOD FOR REDUCING GASTROINTESTINAL ADVERSE EFFECTS OF CYTOTOXIC AGENTS” (priority 2009, published 2010).

Tests used:
[1] = tested on: NF-κB-dependent transcription; experiment: TNFα-induced activation of NF-κB in recombinant HeLa reporter cells (luciferase); type: cell-based
From the text: To test the ACE2 inhibitor ORE1001 for anti-inflammatory activity relevant to IBD, effects of the compound on activation of NF-κB-dependent transcription by TNFα were examined in recombinant reporter cells containing a construct with a luciferase reporter gene under control of NF-κB-dependent regulatory sequences, thereby allowing detection of NF-κB-dependent transcription by measuring reporter enzyme using a conventional luciferase activity assay based on detection of generated light.
In particular, HeLa cells (American Type Culture Collection) were grown in Dulbecco's modified Eagles medium (DMEM) supplemented with 10% fetal calf serum and transiently transfected with an NF-κB—luc construct (Stratagene, Inc.), as follows (with all incubation steps at 37 C unless otherwise indicated). Cells were seeded and grown to about 70% confluency in a 10 cm cell culture dish. Plasmid DNA (10 μg) was added to 1 ml serum free DMEM media in a tube. Fugene 6 transfection reagent (30 μl) (Roche) was then pipetted slowly into the tube and the contents were gently mixed by inversion. The mixture was incubated at room temperature for 15 minutes and then added dropwise to cells in one 10 cm dish. Following incubation for 24 hours, cells were detached from the plate with Trypsin-EDTA (Gibco-BRL), transferred to wells in a clear-bottom white 96-well test plate (Fisher) with 100 μl per well serum free DMEM, at a density of 3×10^4 cells per well, and allowed to attach overnight. Compound (ORE1001) was then added to wells at a concentration of approximately 0, 0.008, 0.04, 0.2, 1.0 or 5.0 μM, followed immediately by addition of TNFα (R&D) to a final concentration of 20 ng/ml. After incubation for 6 hours, 100 μl of Bright-Glo Luciferase buffer (Promega, Cat#E2610) was added, and the plate was incubated at room temperature, with mild shaking, for 10 min. Bioluminescence was then measured using a Veritas luminometer (Turner BioSystems). Each plotted data point represents the average bioluminescence of 4 independent wells.

[2] = tested on: NF-κB-dependent transcription; experiment: In vivo basal NF-κB-dependent transcription in NF-κB::Luc reporter mice (abdominal imaging); conditions: 4 hours
From the text: ORE1001 was further tested for in vivo anti-inflammatory activity by examining its effects on basal levels of NF-κB-dependent transcription in mice engineered in the germline with a construct containing an NF-κB enhancer linked to a luciferase gene (i.e., NF-κB::Luc mice), such that this NF-κB reporter construct is present in all cells of the mice.
More particularly, transgenic NF-κB::Luc mice were generated using three NF-κB response elements from the Igic light chain promoter fused to a firefly luciferase gene as described by Carlsen et al. (2002) J. Immunol. 168:1441-1446. Pronuclear microinjection of purified construct DNA was used to generate transgenic founders in the C57BL/6 XCBA/J background. Founders were subsequently back crossed to the C57BL/6 albino background. […] Signal data were also quantitated and archived using the Living Image® software. Photons of light were quantitated using an oval region of interest (ROI) of varying sizes depending on the procedure, as described further below.
To test for in vivo effects of ORE1001 on basal levels of NF-κB-dependent transcription, male NF-κB::Luc mice were subjected to quantitative in vivo imaging of the abdominal area (using a fixed ROI of 2.76×3.7 cm) as described above, immediately before, and at 2, […]

[3] = tested on: activator protein-1 (AP-1); experiment: Basal in vivo reporter luciferase expression in AP-1::Luc mice; conditions: data not shown
[4] = tested on: LPS-induced NF-κB signaling; experiment: In vivo LPS-induced NF-κB-dependent transcription in NF-κB::Luc mice (abdominal imaging)
From the text: More particularly, transgenic NF-κB::Luc mice were generated using three NF-κB response elements from the Igic light chain promoter fused to a firefly luciferase gene as described by Carlsen et al. (2002) J. Immunol. 168:1441-1446. Pronuclear microinjection of purified construct DNA was used to generate transgenic founders in the C57BL/6 XCBA/J background. Founders were subsequently back crossed to the C57BL/6 albino background. All experimental protocols were approved by the Institutional Animal Care and Use Committee and conform to the ILAR guide for the care and used of laboratory animals. […] Signal data were also quantitated and archived using the Living Image® software. Photons of light were quantitated using an oval region of interest (ROI) of varying sizes depending on the procedure, as described further below.
ORE1001 was further tested for in vivo anti-inflammatory activity by examining its effects on bacterial LPS-induced NF-κB-dependent transcription, in NF-κB::Luc mice. […] Mice were subjected to quantitative abdominal imaging at 2, 4 and 6 h following LPS administration, as described above. […] Luciferase signal was quantitated from several regions of interest. […]
As shown by the quantitative imaging data in FIG. 4, LPS induced a strong NF-κB-dependent luciferase signal in control mice, indicating a strong NF-κB signaling response, as expected. […]

[5] = tested on: LPS-induced NF-κB-dependent transcription; experiment: LPS-induced NF-κB-dependent transcription in extracted organs of NF-κB::Luc mice (luciferase assay); type: in vivo; conditions: 30 mg/kg; 0.5 mg/kg LPS; versus LPS alone
From the text: For luciferase assays, organs were extracted and snap frozen in liquid nitrogen. All tissue samples were placed in lysis buffer with inhibitors (Passive Lysis Buffer (Promega) and Complete Mini Protease Inhibitor Cocktail (Roche, Indianapolis, Ind.)), and were homogenized using a tissue homogenizer (Handishear, Hand-held homogenizer, VirTis, Gardiner, N.Y.). Tissue homogenates were centrifuged and clarified lysates were used for luminometer assays and western blots. For the luminometer assays, Luciferase Assay Substrate (Luciferase Assay System, Promega) was prepared as indicated by the manufacturer and placed in disposable cuvettes. […] Background luminescence readings were obtained and the background readings were subtracted from the luminescent data. Protein concentrations were determined using the BCA Protein Assay Kit (Pierce, Rockford, Ill.) following the manufacturer's protocols and analyzed using a VERSAmax tunable microplate reader and associated Softmax Pro version 3.1.2 software (Molecular Devices, Sunnyvale Calif.). The luminescence for each of the protein lysates was calculated as arbitrary units of light per microgram of protein. […]
ORE1001 was further tested for in vivo anti-inflammatory activity by examining its effects on bacterial LPS-induced NF-κB-dependent transcription, in NF-κB::Luc mice. […] Luciferase signal was quantitated from several regions of interest. […]

[6] = tested on: radiation-induced proctitis; experiment: Rat model of radiation-induced proctitis (endoscopy, histopathology, body weight); type: in vivo; conditions: for proctitis severity (endoscopy, day 8): 17.5 Gy on day 0
From the text: A rat model was used to determine whether ORE1001 can reduce severity of radiation-induced proctitis, as assessed by endoscopy, and can reduce histopathological indicators of radiation-induced proctitis. This is a validated model, as described for example in the publications cited individually below and incorporated herein by reference.
Female Lewis rats of body weight 175-200 g and 6-8 weeks old were randomized into 3 groups of 8 animals each, for induction of proctitis by radiation as described below. In addition, a group of 8 female Lewis rats of body weight 175-200 g and 6-8 weeks old were followed as untreated, non-irradiated controls. Animals were acclimated prior to study commencement. The study was performed in animal rooms provided with filtered air at a temperature of 70±5° F. (˜21±3° C.) and relative humidity of 50±20%, and a 12 h/12 h light/dark cycle. Animals were fed with LabDiet 5053 sterile irradiated rat chow. Water was provided ad libitum.
Proctitis was induced by a single 17.5 Gy dose of radiation at a rate of 1 Gy/minute administered to each animal on day 0. Lead shielding was used to cover the animal except for a 3×4 cm area of the lower pelvis, permitting exposure to radiation of an approximately 2 cm length of rectum and distal descending colon. Radiation was generated with a Kimtron 160 kV, 15 mA source at a focal distance of 30 cm, hardened with a 0.35 mm Cu filtration system. Prior to irradiation, animals were anesthetized with an intraperitoneal injection of ketamine (100 mg/kg) and xylazine (5 mg/kg). Animals were inclined in a slightly head-down position, to allow gravity to move non-target abdominal organs out of the radiation path as much as possible.
ORE1001 in a vehicle of 0.5% carboxymethylcellulose (CMC) in sterile water was administered per os at a daily dose of 600 mg/kg in 5 ml/kg vehicle from day 0 to day 7 (first group) or from day −2 to day 7 (second group). A third group received vehicle only, from day −2 to day 7.
All animals were weighed daily and examined for diarrhea and fecal blood. On day 8, all animals were examined by rodent endoscope under isoflurane anesthesia and were scored for severity of proctitis. Following endoscopy, animals were euthanized by CO2 inhalation and the descending colon and rectum to the anus were taken as a single tissue sample for histological examination. Histopathology was recorded by scoring inflammation, edema and necrosis.

[7] = 600 mg/kg per os daily, day 0 to day 7
[8] = 600 mg/kg per os daily, day −2 to day 7

CC(C)C[C@H](N[C@@H](Cc1cncn1Cc1cc(Cl)cc(Cl)c1)C(=O)O)C(=O)O [ORE1001, (S,S)-2-[1-carboxy-2-[3-(3,5-dichlorobenzyl)-3H-imidazol-4-yl]-ethylamino]-4-methylpentanoic acid]
inhibition of TNFα-induced activation of NF-κB-dependent transcription ([1]; 8 nM, TNFα 20 ng/ml, 6 hours, HeLa): over 80%
maximal inhibition of TNFα-induced activation of NF-κB-dependent transcription ([1]; 0.2 μM, TNFα 20 ng/ml, 6 hours, HeLa): over 95%
TNFα-induced activation of NF-κB-dependent transcription ([1]; all tested concentrations (0.008-5.0 μM)): significantly inhibited
inhibition of basal in vivo levels of NF-κB-dependent transcription in abdominal ROI ([2]; 300 mg/kg subcutaneous, p<0.01): over 40%
inhibition of basal in vivo levels of NF-κB-dependent transcription in abdominal ROI ([2]; both lower doses, subcutaneous): lesser but still significant extents
basal in vivo levels of reporter luciferase expression [3]: no significant effect
LPS-induced NF-κB signaling response, abdominal region ([4]; FIG. 4, 30, 100, 300 mg/kg subcutaneous 1 hour before LPS i.v.): significantly reduced
LPS-induced NF-κB signaling, abdominal region ([4]; FIG. 5, lower dose range 3-100 mg/kg, at 30 and 100 mg/kg): significantly reduced
LPS-induced NF-κB signaling in pancreas and uterus, or any other organ analyzed [5]: no statistically significant decrease
reduction of LPS-induced NF-κB-dependent transcription in stomachs [5]: about 37 fold
edema score (histopathology) [6, 7]: statistically non-significant trend for reduction
necrosis score (histopathology) [6, 7]: statistically non-significant trend for reduction
sum score (histopathology) [6, 7]: statistically non-significant trend for reduction
proctitis severity (endoscopy, day 8) [6, 7]: minor but statistically non-significant reduction
inflammation score (histopathology) [6, 8]: statistically significant reductions
necrosis score (histopathology) [6, 8]: statistically significant reductions
sum of inflammation, edema and necrosis scores [6, 8]: statistically significant reductions
proctitis severity (endoscopy, day 8) [6, 8]: substantial reduction
body weight change ([6]; among the treatments): No major differences
